Holding throughout (format): cell-based
Test [1] relates to HCT-116 cells. Description: cell cycle effects by FACS analysis. The settings on record: FIG. 3a-c, 50 μM. As to the method: The results of the study of the activity are discussed below with the reference to FIG. 3. […] Further, FIG. 3a illustrates cell cycle response for unsyncronized HCT-116 cells, FIG. 3b for HCT-116 cells synchronized and treated at G0 and incubated for 12 hours, and FIG. 3c, for HCT-116 cells synchronized and treated at S and incubated for 12 hours.
The effects of probe 4 on cell cycle were evaluated using FACS analysis.
A general note: A flow cytometer gives signals particle by particle.

Test [2] concerns HeLa, HCT-116 and PC-3 cells. Description: live cell fluorescence microscopy, retention and localization. The note with it: pretreatment with 1 mL DMEM containing 10 μM. On the procedure: HeLa cells (ATCC CCL-2) were cultured in phenol red-free Dulbecco's modification of Eagle's medium (DMEM) with 4.5 g/L glucose, […] and 5% heat inactivated fetal calf serum (FCS) in glass-bottom dishes. The cells were synchronized using a double thymidine block. Phenol red, a common additive in DMEM, was not used during the culturing or experimentation. Fluorescent images were collected on a Nikon TE 2000 using irradiation with a mercury vapor lamp (Nikon), filtration through a dichroic filter set (FF409, Semrock) with an excitation at 377±50 nm, dichroic with >98% reflection at 344-404 nm and >98% transmission at 415-570 nm, and emission filter at 447±60 nm, focusing with an Oil Immersion Epiplan 60× objective (Zeiss), and image collection with an SPOT RT-KE color CCD Camera (Diagnostic Instruments Inc.).
The results of the study of the activity are discussed below with the reference to FIG. 2. […]
Live cell fluorescence microscopy was then conducted to detail the intracellular localization of probe 4. […]
After 12 hours of incubation, the blue fluorescence from probe 4 was vesiculated (FIG. 2d). […] In particular, the overlap of red fluorescence from the red lysosome stain, LysoTracker Red DND-99, and the blue fluorescence from probe 4 provided strong evidence in support of this observation (FIG. 2f).

For test [3], the system named is HCT-116 colon carcinoma. Kind of test: in vitro cytotoxicity against HCT-116 colon carcinoma. The note with it: Homo sapiens. The text has this: Compounds IA and IB are isolated in a pure form from a marine-derived actinomycete strain CNR698. More specifically, compound IA is obtained from the marine-derived actinomycete strain CNR698, and is the first natural product to contain a […] functionality. Compound IB is obtained from the marine-derived actinomycete strain CNR698. The actinomycete was obtained from a marine sediment. Briefly, the actinomycete, identified as a Streptomyces strain (CNR-698) was isolated from bottom sediments collected at a depth of 300 meters in the Bahamas Islands. […] Subsequent cytotoxicity-guided (HCT-116) fractionation by C18 flash chromatography and RP-HPLC led to the isolation of ammosamides A (compound IA) and B (compound IB) as dark blue and blue-purple, respectively (3 and 4 mg/L)
Accordingly, in some embodiments of the invention, compounds IA and IB are used for making pharmaceutical compositions comprising either or both of the two compounds and a pharmaceutically acceptable carrier. In addition, the pharmaceutical compositions can optionally comprise one or more additional anticancer agent(s).
Activity of probe 4 (FIG. 1) was compared to that of ammosamide A (1 on FIG. 1). […] Florescence microscopy was then used to examine the uptake of probe 4, which was concentrated within HeLa, HCT-116 and PC-3 cells within minutes (FIG. 2). The entire fluorescence from addition of 1 mL of 1 μM in […] appeared within the cell.

Where [4] appears, read: HCT-116, read-out: cytotoxicity IC50 values.
Setting [5] is: HCT-116, read-out: in vitro cytotoxicity IC50.

Molecules are shown by their SMILES. Where two headings read alike, the source gives them in different places. Some results are limits rather than exact numbers.

For orientation: IC50 means the concentration that inhibits the measured activity by half. Regarding `CN1C(=S)c2cc(C(N)=O)nc3c(N)c(Cl)c(N)c1c23` [Compound IA, ammosamide A], in test [1], the “cell cycle data relative to probe 4” value was “Comparable cell cycles data”. Also, the “effect of pretreatment on uptake of probe 4” value in test [2] is given as “blocked the uptake of probe 4”. Also, the IC50 is less than 1 µM in test [3] (setting [4]) and 0.32 µM in test [3] (setting [5]).

In the case of `CN1C(=O)c2cc(C(N)=O)nc3c(N)c(Cl)c(N)c1c23` [Compound IB, ammosamide B], the IC50 in test [3] (setting [4]) is less than 1 µM; in test [3] (setting [5]), 0.32 µM.

The values above are taken from patent US8133902B2, “Ammosamides as anticancer agents” (The Regents of the University of California, priority 2007, dated 2012).
